Measurements as given in US20220280594A1, “APPLICATION OF POLYPEPTIDE OR DERIVATIVE THEREOF” (CHENGDU HUITAI BIOMEDICINE CO., LTD., priority 2019, published 2022).
Ends that are not written are not given here. PEG = not defined here

Experiments:
Type in all cases: cell-based
[1] = system: human pancreatic cancer cells (PANC-1); experiment: scratch assay, migration of PANC-1 cells; conditions: PANC-1, 10 μM, 48 hours; control group 66.65 ± 3.37
Description: (§1) In the scratch assay, the cell migration rate was negatively correlated with the inhibitory effect of the drug component on tumor cell migration ability. The cell migration inhibition experiment was described as follows: tumor cells were cultured in vitro, cells in logarithmic growth phase were collected and seeded evenly in a 24-well plate at a density of 1-2×10^5 cells/well; the cells were cultured in a cell incubator until a monolayer was formed; a scratch tool was used to make a “-” (straight) scratch on the monolayer of cells; the cells were washed 1-3 times with PBS, and a medium (with 2% fetal bovine serum) containing specific test components was added to the culture. Experimental grouping: PBS control group; polypeptide or derivative thereof treatment group (N1-N54), 10 μM. Three independent parallel wells were set up in each group, and the cells were cultured continuously in a cell incubator for 48 hours. […] At least 3 representative images for each well were taken. ImageJ software was used to count the migration distance of the cells, and the cell migration rate was calculated as: cell migration rate (%)=(width of original scratch−width of current scratch)/width of original scratch×100.
This example was a scratch assay to evaluate the inhibitory effect of the polypeptide or derivative thereof (N1-N54) on the migration ability of human pancreatic cancer cells (PANC-1). The experimental method was as described in Example 2.

[2] = system: human pancreatic cancer cells (PANC-1); experiment: transwell migration assay, PANC-1 cells; conditions: PANC-1 transwell migration, 10 μM, 24 hours; control group 360 ± 60
Description: (§2) The Transwell chamber system was used in the transwell cell migration experiment. The chamber has an upper layer and a lower layer, which are separated by an artificial semipermeable membrane in the middle. Cells that have migrated through the semi-permeable membrane will attach to the lower surface of the semi-permeable membrane. The migration ability is evaluated by counting the number of cells on the lower surface of the semi-permeable membrane. The number of cells that have migrated is negatively correlated with the inhibitory effect of the drug on the migration ability of the tumor cells. Transwell migration assay was performed as follows: tumor cells were cultured in vitro, cells in logarithmic growth phase were collected, and cell suspension was prepared with fresh serum-free medium at a density of 2-3×10^5 cells/mL. Cells were inoculated, 100 μL/well cell suspension (serum-free medium) in the upper chamber and 600 μL/well complete culture medium in the lower chamber. After incubated in 37° C., 5% CO2 incubator for 4-5 hours, serum-free medium (100 μL/well) was added to the control group, and serum-free medium containing polypeptide or derivative thereof (N1-N54) was added to the upper chamber of the treatment group (100 μL/well), the final concentration of the peptide or derivative thereof in the upper chamber was 10 μM. The cells were incubated continuously for 24 hours, and then fixed with methanol and stained with crystal violet. Images were taken under a microscope and the number of migrated cells was counted with ImageJ.
This example was a transwell cell migration experiment to evaluate the inhibitory effect of the polypeptide or derivative thereof (N1-N54) on the migration ability of human pancreatic cancer cells (PANC-1). The experimental method was as described in Example 3.

[3] = system: human pancreatic cancer cells (PANC-1); experiment: transwell invasion assay, PANC-1 cells; conditions: PANC-1 transwell invasion, 10 μM, 24 hours; control group 727 ± 68
From the text: (§3) The Transwell chamber system was used in the transwell cell invasion experiment. The chamber has an upper layer and a lower layer, which are separated by an artificial semipermeable membrane in the middle. The upper surface of the semipermeable membrane is coated with a layer of artificial matrigel to simulate extracellular matrix. Cells that have invaded through the matrigel and semi-permeable membrane will attach to the lower surface of the semi-permeable membrane. The invasion ability is evaluated by counting the number of cells on the lower surface of the semi-permeable membrane. The number of cells that have invaded is negatively correlated with the inhibitory effect of the drug on the invasion ability of the tumor cells. Transwell invasion assay was performed as follows: tumor cells were cultured in vitro, cells in logarithmic growth phase were collected, and cell suspension was prepared with fresh serum-free medium at a density of 2-3×10^5 cells/mL. Cells were inoculated, 100 μL/well cell suspension (serum-free medium) in the upper chamber and 600 μL/well complete culture medium in the lower chamber. After incubated in 37° C., 5% CO2 incubator for 4-5 hours, serum-free medium (100 μL/well) was added to the control group, and serum-free medium containing polypeptide or derivative thereof (N1-N54) was added to the upper chamber of the treatment group (100 μL/well), the final concentration of the peptide or derivative thereof in the upper chamber was 10 μM. The cells were incubated continuously for 24 hours, and then fixed with methanol and stained with crystal violet. Images were taken under a microscope and the number of invaded cells was counted with ImageJ.
This example was the transwell cell invasion experiment to evaluate the inhibitory effect of the polypeptide or derivative thereof (N1-N54) on the invasion ability of human pancreatic cancer cells (PANC-1). The experimental method was as described in Example 4.

[4] = system: human liver adenocarcinoma cells (SK-HEP-1); experiment: transwell migration assay, SK-HEP-1 cells; conditions: SK-HEP-1 transwell migration, 10 μM, 24 hours; control group 1 782 ± 108, control group 2 768 ± 86
Description: as §2
This example was a transwell cell migration experiment to evaluate the inhibitory effect of the polypeptide or derivative thereof (N1-N54) on the migration ability of human liver adenocarcinoma cells (SK-HEP-1). The experimental method was as described in Example 3.

[5] = system: human liver adenocarcinoma cells (SK-HEP-1); experiment: transwell invasion assay, SK-HEP-1 cells; conditions: SK-HEP-1 transwell invasion, 10 μM, 24 hours; control group 767 ± 91
From the text: as §3
This example was a transwell cell invasion experiment to evaluate the inhibitory effect of the polypeptide or derivative thereof (N1-N54) on the invasion ability of human liver adenocarcinoma cells (SK-HEP-1). The experimental method was as described in Example 4.

[6] = system: human breast cancer cells (MDA-MB-453); experiment: scratch assay, migration of MDA-MB-453 cells; conditions: MDA-MB-453, 10 μM, 48 hours; control group 32.42 ± 2.04
Description: as §1
This example was a scratch assay to evaluate the inhibitory effect of the polypeptide or derivative thereof (N1-N54) on the migration ability of human breast cancer cells (MDA-MB-453). The experimental method was as described in Example 2.

[7] = system: human oral epidermoid carcinoma KB cells; experiment: scratch assay, migration of KB cells; conditions: 10 μM, 48 hours, control group 54.03 ± 4.21
Description: as §1
This example was a scratch assay to evaluate the inhibitory effect of the polypeptide or derivative thereof (N1-N54) on the migration ability of human oral epidermoid carcinoma cells (KB). The experimental method was as described in Example 2.

[8] = system: human thyroid cancer cells (FRO); experiment: scratch assay, migration of FRO cells; conditions: 10 μM, 48 hours, control group 60.34 ± 8.32
Description: as §1
This example was a scratch assay to evaluate the inhibitory effect of the polypeptide or derivative thereof (N1-N54) on the migration ability of human thyroid cancer cells (FRO). The experimental method was as described in Example 2.

| Substance | Migration rate (%) (mean ± SD, P) [1] | Number of cells (mean ± SD, P), migrated cells [2] | Number of cells (mean ± SD, P), invaded cells [3] | Number of cells (mean ± SD, P), migrated cells [4] | Number of cells (mean ± SD, P), invaded cells [5] | Migration rate (%) (mean ± SD, P) [6] | Migration rate (%) (mean ± SD, P) [7] | Migration rate (%) (mean ± SD, P) [8] |
| --- | --- | --- | --- | --- | --- | --- | --- | --- |
| N23: SEQ ID NO: 1 with substitution A7R, deletion of position 11 and of positions 15-18 (YRVRFLRKENTQDAED) | 14.16 ± 8.36,*** % | 200 ± 14,*** | 196 ± 26,**** | 276 ± 24,**** | 456 ± 45,** | 18.2 ± 3.53,** % | 10.57 ± 1.7,*** % | 34.39 ± 4.10,* % |
| N8: SEQ ID NO: 1 with deletion of positions 15-18 and positions 3, 4 and 11 (YRFLAKENTQD) | 35.11 ± 5.96,** % | 133 ± 20,*** | 65 ± 16,**** | 139 ± 13,**** | 277 ± 38,**** | 9.44 ± 2.09,*** % | 11.55 ± 1.62,*** % | 7.28 ± 2.89,*** % |
| N6: SEQ ID NO: 1 with deletion of four amino acids at the carboxyl terminal (positions 15-18) (YRVRFLAKENVTQD) | 36.66 ± 5.57,** % | 144 ± 12,*** | 110 ± 5,**** | 157 ± 13,**** | 145 ± 29,**** | 13.01 ± 3.14,** % | 15.79 ± 3.16,** % | 3.24 ± 1.80,*** % |
| N29: SEQ ID NO: 1 with deletion of positions 1-5 and 15-18 and PEG modification at the amino terminal ({PEG}-LAKENVTQD; reading uncertain) | 40.62 ± 4.97,* % | 178 ± 31,*** | 213 ± 17,**** | 254 ± 14,**** | 322 ± 56,*** | 13.73 ± 3.29,** % | 8.07 ± 1.79,*** % | 5.12 ± 2.67,*** % |
| N18: SEQ ID NO: 1 with addition of one amino acid at the amino terminal and one at the carboxyl terminal (FYRVRFLAKENVTQDAEDNC) | 13.26 ± 7.39,*** % | 232 ± 24,* | 118 ± 14,**** | 96 ± 28,**** | 262 ± 21,**** | 9.97 ± 2.44,*** % | 12.67 ± 2.33,*** % | 22.96 ± 5.05% |
| N11: SEQ ID NO: 1 with deletion of positions 15-18 and 1-3 and PEG modification at the amino terminal ({PEG}-RFLAKENVTQD; reading uncertain) | 28.37 ± 7.57,** % | 239 ± 26,* | 66 ± 14,**** | 80 ± 6,**** | 398 ± 36,*** | 4.49 ± 1.6,*** % | 8.29 ± 1.96,*** % | 10.09 ± 4.33,*** % |
| N34: SEQ ID NO: 1 with A15R, addition of one amino acid at the carboxyl terminal, PEG modification at the amino terminal ({PEG}-YRVRFLAKENVTQDREDNC; reading uncertain) | 28.58 ± 3.87,*** % | 248 ± 19,* | 346 ± 30,*** | 260 ± 32,**** | 187 ± 38,**** | 9.57 ± 3.68,*** % | 12.88 ± 1.71,*** % | 8.74 ± 3.40,*** % |
| N1: polypeptide with the amino acid sequence set forth in SEQ ID NO: 1 (YRVRFLAKENVTQDAEDN) | 18.89 ± 6.68,*** % | 245 ± 27,* | 83 ± 26,**** | 87 ± 10,**** | 343 ± 38,*** | 13.05 ± 2.05,** % | 7.49 ± 2.99,*** % | 7.45 ± 2.78,*** % |
| N28: SEQ ID NO: 1 with deletion of positions 1-2 and 18 and PEG modification at the amino terminal ({PEG}-VRFLAKENVTQDAED; reading uncertain) | 32.25 ± 5.40,** % | 148 ± 21,*** | 247 ± 15,**** | 51 ± 25,**** | 214 ± 31,**** | 11.32 ± 5.61,** % | 11.24 ± 3.52,*** % | 8.77 ± 2.85,*** % |
